Assay results published in PMC5855688, “BC-Box Motif-Mediated Neuronal Differentiation of Somatic Stem Cells” (International Journal of Molecular Sciences, 2018).

Key:
[1] = test system: skin-derived precursors (SKPs); experiment: Neurite outgrowth / morphological evaluation of neuronal differentiation; assay type: cell-based, rat (neonate Wistar); details: for Morphological change: phase-contrast microscopy, Figure 1E
Procedure: (§1) Rodent skin-derived precursor cells (SKPs), which can differentiate to neurons, were used. SKPs were previously isolated from the back dermis of neonate Wistar rats by the authors. These cells were cultured in growth medium composed of DMEM/F12 (1:1; Gibco, Grand Island, NY, USA) containing 2% B27 supplement (Gibco), 20 ng/mL epidermal growth factor (EGF; Upstate Biotechnology, Lake Placid, NY, USA), and 40 ng/mL bFGF (PeproTech EC Ltd., Rocky Hill, NJ, USA) in a humidified incubator at 37 °C with 5% CO2. The floating clusters of cultured cells were centrifuged and dissociated into a single-cell suspension by use of a Pasteur pipette with a flame-polished tip. These single cells were then re-suspended into at a concentration of 50,000 cells/mL for passage or experiments.
(§2) For neuronal differentiation, cells were dissociated into a single-cell suspension by use of a Pasteur pipette and re-suspended into a concentration of 50,000 cells/mL in DMEM/F12 without serum, neurotrophic factors or growth factors. Then, the cells were cultured on poly-L-lysine-coated dishes or cover glasses, and the synthesized peptides at concentrations from 1 to 5 μM were added to the culture medium and delivered into the cells. Three days or more later, the cells were used for morphological, immunocytochemical, immunohistochemical, electrophysiological and immunoprecipitation studies, as well as for Western blot analysis.
Neurite outgrowth with length exceeding the diameter of the neuronal soma is often assessed as a morphological index of neuronal differentiation. After a single-cell suspension was made by pipetting, the cells were cultured in DMEN/F12 medium alone at 37 °C in a 5% CO2 incubator. Thereafter, neurite outgrowth was evaluated with the following 4 levels: +++, for above 50% of the cells showing neurite outgrowth; ++, for 20–50% with neurite outgrowth; +, for 5–19% having neurite outgrowth; and −, for below 5% of the cells with neurite outgrowth.

[2] = test system: skin-derived precursors (SKPs); experiment: Western blot analysis of neuronal markers in NDD peptide-treated cells; assay type: cell-based, rat (neonate Wistar); details: Figure 6A; for Expression of ChAT: choline acetyltransferase; for Expression of TH: tyrosine hydroxylase; for Expression of GAD: glutamic acid decarboxylase
Procedure: as §1, §2
(§3) Cultured cells were washed 3 times in cold PBS and then scraped into ice-cold PBS. After incubation on ice for 10 min, the cells were lysed with lysis buffer and centrifuged, after which the supernatants were collected. Each sample was separated by SDS-PAGE under reducing conditions and transferred electrophoretically to nitrocellulose filters. Non-specific binding of antibody was blocked by incubation with 5% donkey serum for 1 h. Western blots were probed with anti-MAP2 antibody, anti-NFH antibody, anti-ChAT antibody, anti-GAD antibody, anti-rhodopsin antibody, anti-TH antibody, and anti-elongin C antibody (Santa Cruz, San Diego, CA, USA) followed by horseradish peroxidase-conjugated secondary antibodies. Protein bands were detected by using a chemical luminescence detection system (ECL Plus Western Blotting Reagent Pack, Amersham, Hemel Hempstead, UK). Images were analyzed with LAS-1000 (Fujifilm, Tokyo, Japan), and the density of the bands was determined by using Image Gauge software (Fujifilm).

[3] = test system: skin-derived precursors (SKPs); experiment: Immunocytochemistry of neuronal markers in NDD peptide-treated cells; assay type: cell-based, rat (neonate Wistar); details: Figure 6B
Procedure: as §1, §2
(§4) Cultured cells were fixed with 4% paraformaldehyde in PBS (Phosphate buffered saline) for 10 min at room temperature. Cells were incubated for 1 h at room temperature with primary antibodies. Antibodies against anti-MAP2 antibody (Sigma-Aldrich, St. Louis, MO, USA), anti-Neurofilment-H (NFH) antibody (Sigma-Aldrich), anti-NeuN antibody (Merk Millipore, Billerica, MA, USA), anti-GFAP antibody (DAKO, Santa Clara, CA, USA), anti-tyrosine hydroxylase (TH) antibody (Merk Millipore, Billerica, MA, USA), anti-choline acetyl transferase (ChAT) antibody (Abbiotec, San Diego, CA, USA), anti-glutamic acid decaboxylase (GAD) antibody (Enzo Life Sciences, Flamingdale, NY, USA), and anti-rhodopsin antibody (Santa Cruz, San Diego, CA, USA) were used. After incubation with primary antibody, the cells were incubated for 1 h with secondary antibody, either rhodamine-conjugated anti-mouse IgG (Sigma-Aldrich) or FITC-conjugated anti-rabbit IgG (Sigma-Aldrich). Nuclear counterstaining was done with DAPI (Molecular Probes, Eugene, OR, USA) or TO-PRO-3 (Molecular Probes), and observations were made with a fluorescence microscope system (FV300, Olympus, Tokyo, Japan). We counted the number of immuno-positive cells with a given antibody in 4 to 6 random non-overlapping visual fields (50–200 cells per field) in each experiment. At least 2 experiments were performed per condition. The degree of positivity was expressed as the rate of immuno-positive cells to the total number of nuclei stained with DAP1 or TO-PRO-3.

elongin C = experiment: Immunoprecipitation with anti-elongin C, immunoblot anti-FITC; assay type: binding, rat; details: FITC-conjugated peptides, Figure 3C, difference p < 0.001
Procedure: as §2
Cultured cells (1 × 10^6) were washed with ice-cold PBS and lysed in RIPA lysis buffer (Upstate, Charlottesville, VA, USA). The total protein was extracted from the cells, and the total protein concentration of each lysate was adjusted to 1 mg/mL. The lysates were immunoprecipitated with anti- elongin C antibody (Santa Cruz, San Diego, CA, USA) diluted at 1:500 by using μMACS Protein A Microbeads (Miltenyi Biotec, Bergisch Gladbach, Germany). The immunoprecipitates were analyzed by SDS/gradient polyacrylamide gel and Western blotting with anti-FITC antibody (Santa Cruz, San Diego, CA, USA) diluted 1:500. Immunolabeled bands were detected by using enhanced chemiluminescence reagents (Amersham Biosciences Corp., Piscataway, NJ, USA). Images were analyzed with LAS-1000 (Fujifilm), and the density of the bands was determined by using Image Gauge software (Fujifilm).

[4] = test system: skin-derived precursors (SKPs); experiment: Immunocytochemistry with anti-Neurofilament-H (NFH) antibody; assay type: cell-based, rat (neonate Wistar); details: ten divided pVHL sequences compared, Figure 1C; peptides at 1 to 5 μM
Procedure: as §1, §2
as §4, with “After incubation with primary antibody, the cells were incubated for 1 h with secondary antibody, either rhodamine-conjugated anti-mouse IgG (Sigma-Aldrich) or FITC-conjugated anti-rabbit IgG (Sigma-Aldrich).” left out, “At least 2 experiments were performed per condition.” left out

[5] = test system: skin-derived precursors (SKPs); experiment: Western blot analysis of NFH protein; assay type: cell-based, rat (neonate Wistar); details: ten divided pVHL sequences compared, Figure 1B, peptides at 1 to 5 μM
Procedure: as §1, §2, §3

[6] = BC-box motif alone (10-residue) peptides, delivered with TAT PTD, 1 to 5 μM
[7] = BC-box motif plus five C-terminal amino acids peptides, delivered with TAT PTD, 1 to 5 μM

Q: For “YARAAARQARA PLQELCRQRI [SOCS1 BC-box motif alone]”, which “Neurite Outgrowth Activity” value [1, 6] is on record?
A: - (below 5% of the cells with neurite outgrowth)

Q: How did the “Neurite Outgrowth Activity” value [1, 6] turn out when “YARAAARQARA SLKHLCRKAL [WSB2 BC-box motif alone]” was run?
A: - (below 5% of the cells with neurite outgrowth)

Q: For “YARAAARQARA SLQYICRAVI [SOCS5 BC-box motif alone]”, which “Neurite Outgrowth Activity” value [1, 6] is on record?
A: + (5–19% having neurite outgrowth)

Q: “YARAAARQARA TLKERCLQVV [VHL(157–166), pVHL BC-box motif alone, conjugated with PTD]” was tested. Which “Neurite Outgrowth Activity” value [1, 6] did it give?
A: - (below 5% of the cells with neurite outgrowth)

Q: What about the Neurite Outgrowth Activity ([1]; Figure 2A, rates of cells having neurites, peptides at 1 to 5 μM, VHL157–168 vs VHL(157–171) p < 0.005) of the same sequence?
A: scarcely did

Q: How did the Morphological change ([1]; peptides at 1 to 5 μM) turn out when “YARAAARQARAMPRRAENWDEAEV [VHL(1–13), pVHL fragment conjugated with PTD]” was run?
A: no morphological change

Q: With “YARAAARQARAPLQELCRQRIVAAVG [SOCS1 BC-box motif plus five amino acids]” as the sequence, how does the “Neurite Outgrowth Activity” value [1, 7] read?
A: ++ (20–50% with neurite outgrowth)

Q: What about the “Expression of ChAT” value [2] of the same sequence?
A: moderate

Q: And the “Expression of TH” value [2]?
A: moderate

Q: How did the “Rate of GAD-positive (GABAnergic neuron-like) cells” value (from here on “Rate of GAD-positive”) [3] turn out when “YARAAARQARASLKHLCRKALRSFLT [WSB2 BC-box motif plus five amino acids]” was run?
A: high rates of positive cells

Q: What about the “Rate of TH-positive (dopaminergic neuron-like) cells” value (shortened to “Rate of TH-positive”) [3] of the same sequence?
A: high rates of positive cells

Q: What about the “Neurite Outgrowth Activity” value [1, 7] of the same sequence?
A: ++ (20–50% with neurite outgrowth)

Q: What about the “Expression of ChAT” value [2] of the same sequence?
A: moderate

Q: What about the “Expression of GAD” value [2] of the same sequence?
A: expressed highly

Q: And the “Expression of TH” value [2]?
A: moderate

Q: For “YARAAARQARASLQHICRTVI [SOCS4 BC-box motif alone]”, which “Neurite Outgrowth Activity” value [1, 6] is on record?
A: - (below 5% of the cells with neurite outgrowth)

Q: For “YARAAARQARASLQHICRTVICNCTT [SOCS4 BC-box motif plus five amino acids]”, which “Neurite Outgrowth Activity” value [1, 7] is on record?
A: ++ (20–50% with neurite outgrowth)

Q: And the Expression of rhodopsin [2]?
A: moderate

Q: And the “Expression of GAD” value [2]?
A: expressed highly

Q: How did the “Neurite Outgrowth Activity” value [1, 6] turn out when “YARAAARQARASLQHLCRFRI [SOCS7 BC-box motif alone]” was run?
A: + (5–19% having neurite outgrowth)

Q: For “YARAAARQARASLQHLCRFRIRQLVR [SOCS7 BC-box motif plus five amino acids]”, which “Rate of ChAT-positive (cholinergic neuron-like) cells” value [3] is on record?
A: high rates of positive cells

Q: And the “Neurite Outgrowth Activity” value [1, 7]?
A: +++ (above 50% of the cells showing neurite outgrowth)

Q: What about the “Expression of ChAT” value [2] of the same sequence?
A: high

Q: And the “Expression of TH” value [2]?
A: pronounced

Q: Which results are given for “YARAAARQARASLQYICRAVICRCTT [SOCS5 BC-box motif plus five amino acids]”?
A: Rate of TH-positive (dopaminergic neuron-like) cells [3]: high rates of positive cells; Rate of rhodopsin-positive cells [3]: high rates of positive cells; Neurite Outgrowth Activity [1, 7]: +++ (above 50% of the cells showing neurite outgrowth); Expression of rhodopsin [2]: highly expressed

Q: Which “Neurite Outgrowth Activity” value [1, 6] does the source give for “YARAAARQARASLQYLCRFVI [SOCS6 BC-box motif alone]” here?
A: - (below 5% of the cells with neurite outgrowth)

Q: For “YARAAARQARASLQYLCRFVIRQYTR [SOCS6 BC-box motif plus five amino acids]”, which “Rate of TH-positive” value [3] is on record?
A: high rates of positive cells

Q: And the “Neurite Outgrowth Activity” value [1, 7]?
A: ++ (20–50% with neurite outgrowth)

Q: And the “Expression of TH” value [2]?
A: moderate

Q: “YARAAARQARASLTHLCRLEIRSSIK [ASB3 BC-box motif plus five amino acids]” was tested. Which “Rate of GAD-positive” value [3] did it give?
A: high rates of positive cells

Q: And the “Rate of TH-positive” value [3]?
A: high rates of positive cells

Q: For “YARAAARQARATLKERCLQVVRS [FITC-VHL(157–168), FITC-tagged VHL(157–168) peptide]”, which “Binding to elongin C (FITC band after anti-elongin C immunoprecipitation)” value (elongin C) is on record?
A: a faint band for FITC

Q: What about the “Binding to elongin C (FITC band after anti-elongin C immunoprecipitation)” value (elongin C; listed as FITC-conjugated VHL(157–168)) of the same sequence?
A: significantly less did

Q: What does the source list for “YARAAARQARATLKERCLQVVRSLVK [FITC-VHL(157–171), FITC-tagged VHL(157–171) peptide]”?
A: Binding to elongin C (FITC band after anti-elongin C immunoprecipitation) (elongin C): A distinct band for FITC; Binding to elongin C (FITC band after anti-elongin C immunoprecipitation) (elongin C; listed as FITC-conjugated VHL(157–171)): distinctly bound to elongin C

Q: Which “Neurite Outgrowth Activity” value [1, 6] does the source give for “YARAAARQARATLLESSARTI [LRR-1 BC-box motif alone]” here?
A: - (below 5% of the cells with neurite outgrowth)

Q: For “YARAAARQARATLLESSARTILHNRI [LRR-1 BC-box motif plus five amino acids]”, which “Rate of GAD-positive” value [3] is on record?
A: high rates of positive cells

Q: And the “Rate of TH-positive” value [3]?
A: high rates of positive cells

Q: What about the “Neurite Outgrowth Activity” value [1, 7] of the same sequence?
A: ++ (20–50% with neurite outgrowth)

Q: And the “Expression of GAD” value [2]?
A: expressed highly

Q: For “YARAAARQARATLQHFCRLAI [SOCS2 BC-box motif alone]”, which “Neurite Outgrowth Activity” value [1, 6] is on record?
A: - (below 5% of the cells with neurite outgrowth)

Q: What does the source list for “YARAAARQARATLQHFCRLAINKCT G [SOCS2 BC-box motif plus five amino acids]”?
A: Neurite Outgrowth Activity [1, 7]: + (5–19% having neurite outgrowth); Expression of rhodopsin [2]: moderate; Expression of GAD [2]: expressed highly

Q: Which “Neurite Outgrowth Activity” value [1, 6] does the source give for “YARAAARQARATLQHLCRKTV [SOCS3 BC-box motif alone]” here?
A: - (below 5% of the cells with neurite outgrowth)

Q: With “YARAAARQARATLQHLCRKTVNGHLD [SOCS3 BC-box motif plus five amino acids]” as the sequence, how does the “Rate of GAD-positive” value [3] read?
A: high rates of positive cells

Q: What about the “Neurite Outgrowth Activity” value [1, 7] of the same sequence?
A: ++ (20–50% with neurite outgrowth)

Q: And the “Expression of TH” value [2]?
A: moderate

Q: Which results are given for “YARAAARQARAVYTLKERCLQVVRSLVK [VHL(155–171), pVHL fragment conjugated with PTD]”?
A: Rate of immunoreactivity for Neurofilament-H (NFH) [4]: greatest rate of immunoreactivity; Morphological change ([1]; peptides at 1 to 5 μM): assumed a neuron-like morphology; Rate of cells having neurites ([1]; ten divided pVHL sequences compared, Figure 1D, peptides at 1 to 5 μM, three days or more): greatest rate; NFH protein expression [5]: greatest expression
